pIC50: −log10 of the molar value.
Molecular target: T1, Mer (Homo sapiens, UniProt Q12866)
T1 construct: host or cells: 293A cells (Thermo Fisher #R70507)
T1 sequence (Q12866 21-999): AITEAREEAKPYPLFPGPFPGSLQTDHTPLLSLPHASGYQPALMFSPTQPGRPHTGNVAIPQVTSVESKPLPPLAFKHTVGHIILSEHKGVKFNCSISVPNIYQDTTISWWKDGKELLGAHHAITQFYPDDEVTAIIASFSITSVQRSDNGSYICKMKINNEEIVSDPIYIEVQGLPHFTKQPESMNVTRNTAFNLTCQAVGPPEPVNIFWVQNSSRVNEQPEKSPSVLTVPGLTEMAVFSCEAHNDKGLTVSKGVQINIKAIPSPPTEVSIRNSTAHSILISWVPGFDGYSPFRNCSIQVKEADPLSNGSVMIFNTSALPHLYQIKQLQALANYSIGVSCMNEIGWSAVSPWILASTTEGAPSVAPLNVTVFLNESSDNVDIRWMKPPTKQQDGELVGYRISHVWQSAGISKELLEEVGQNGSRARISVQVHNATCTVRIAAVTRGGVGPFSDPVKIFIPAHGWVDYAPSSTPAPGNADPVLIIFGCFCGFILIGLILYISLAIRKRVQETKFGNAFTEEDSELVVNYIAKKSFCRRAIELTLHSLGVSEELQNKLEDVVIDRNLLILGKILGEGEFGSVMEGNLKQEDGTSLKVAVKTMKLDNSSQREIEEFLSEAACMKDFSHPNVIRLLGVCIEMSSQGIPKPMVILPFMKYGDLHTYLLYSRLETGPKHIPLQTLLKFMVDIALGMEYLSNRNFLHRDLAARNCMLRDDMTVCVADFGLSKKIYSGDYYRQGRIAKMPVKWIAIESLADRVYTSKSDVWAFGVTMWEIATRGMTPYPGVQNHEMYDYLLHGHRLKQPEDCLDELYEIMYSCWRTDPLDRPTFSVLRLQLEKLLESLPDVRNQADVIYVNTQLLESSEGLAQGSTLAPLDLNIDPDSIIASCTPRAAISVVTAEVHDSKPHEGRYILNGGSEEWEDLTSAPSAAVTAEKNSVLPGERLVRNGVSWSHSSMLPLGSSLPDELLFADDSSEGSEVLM
Experiment: Mer autophosphorylation ELISA in transient transfected 293A cells
Format: cell-based
Details: cellular activity; MERTK-transfected 293A cells, phospho-Mer ELISA
Summary of the method: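 293A cells transiently transfected with human MERTK DNA, then treated 1 h with 8-point compound dilutions in serum-free medium (0.3% DMSO). Phospho-Mer in lysates quantified by sandwich ELISA against phospho-Mer standard; normalised to DMSO (100%) and reference inhibitor (0%), IC50 from 4-parameter logistic fit.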

pIC50	Compound
7.00 to 8.00	O=C(Nc1ccc(F)cc1)C1(C(=O)Nc2ccc(Oc3ccnc4cc(C5=CCOC5)ccc34)cc2)CC1 [Compound 95, 1-N-[4-[7-(2,5-Dihydrofuran-3-yl)quinolin-4-yl]oxyphenyl]-1-N′-(4-fluorophenyl)cyclopropane-1,1-dicarboxamide]
6.52 to 7.00	Cc1ccn(-c2ccc3c(Oc4ccc(NC(=O)C5(C(=O)Nc6ccc(F)cc6)CC5)cc4)ccnc3c2)n1 [Compound 91, 1-N′-(4-Fluorophenyl)-1-N-[4-[7-(3-methylpyrazol-1-yl)quinolin-4-yl]oxyphenyl]cyclopropane-1,1-dicarboxamide]
7.00 to 8.00	Cc1cc2c(Oc3ccc(NC(=O)C4(C(=O)Nc5ccc(F)cc5)CC4)cc3)ccnc2cc1-c1cc[nH]n1 [Compound 107, 1-N′-(4-Fluorophenyl)-1-N-[4-[6-methyl-7-(1H-pyrazol-3-yl)quinolin-4-yl]oxyphenyl]cyclopropane-1,1-dicarboxamide]
7.00 to 8.00	Cc1cn(-c2ccc3c(Oc4ccc(NC(=O)C5(C(=O)Nc6ccc(F)cc6)CC5)cc4)ccnc3c2)cn1 [Compound 87, 1-N′-(4-Fluorophenyl)-1-N-[4-[7-(4-methylimidazol-1-yl)quinolin-4-yl]oxyphenyl]cyclopropane-1,1-dicarboxamide]
6.52 to 7.00	O=C(Nc1ccc(F)cc1)C1(C(=O)Nc2ccc(Oc3ccnc4cc(-c5ccn(C6CC6)n5)ccc34)cc2)CC1 [Compound 98, 1-N-[4-[7-(1-Cyclopropylpyrazol-3-yl)quinolin-4-yl]oxyphenyl]-1-N′-(4-fluorophenyl)cyclopropane-1,1-dicarboxamide]
7.00 to 8.00	O=C(Nc1ccc(F)cc1)C1(C(=O)Nc2ccc(Oc3ccnc4cc(-c5cnn(CF)c5)ccc34)cc2)CC1 [Compound 94, 1-N-[4-[7-[1-(Fluoromethyl)pyrazol-4-yl]quinolin-4-yl]oxyphenyl]-1-N′-(4-fluorophenyl)cyclopropane-1,1-dicarboxamide]
7.00 to 8.00	Cc1cc(-c2ccc3c(Oc4ccc(NC(=O)C5(C(=O)Nc6ccc(F)cc6)CC5)cc4)ccnc3c2)nn1C [Compound 101, 1-N-[4-[7-(1,5-Dimethylpyrazol-3-yl)quinolin-4-yl]oxyphenyl]-1-N′-(4-fluorophenyl)cyclopropane-1,1-dicarboxamide]
7.00 to 8.00	Nc1n[nH]cc1-c1ccc2c(Oc3ccc(NC(=O)C4(C(=O)Nc5ccc(F)cc5)CC4)cc3)ccnc2c1 [Compound 90, 1-N-[4-[7-(3-Amino-1H-pyrazol-4-yl)quinolin-4-yl]oxyphenyl]-1-N′-(4-fluorophenyl)cyclopropane-1,1-dicarboxamide]
7.00 to 8.00	CC(=O)N1CCC(c2ccc3c(Oc4ccc(NC(=O)C5(C(=O)Nc6ccc(F)cc6)CC5)cc4)ccnc3c2)C1 (stereo not drawn) [Compound 92, 1-N-[4-[7-(1-Acetylpyrrolidin-3-yl)quinolin-4-yl]oxyphenyl]-1-N′-(4-fluorophenyl)cyclopropane-1,1-dicarboxamide]
7.00 to 8.00	Cc1cc(-c2ccc3c(Oc4ccc(NC(=O)C5(C(=O)Nc6ccc(F)cc6)CC5)cc4)ccnc3c2)n[nH]1 [Compound 99, 1-N′-(4-Fluorophenyl)-1-N-[4-[7-(5-methyl-1H-pyrazol-3-yl)quinolin-4-yl]oxyphenyl]cyclopropane-1,1-dicarboxamide]
6.52 to 7.00	CS(=O)(=O)N1CCC(c2ccc3c(Oc4ccc(NC(=O)C5(C(=O)Nc6ccc(F)cc6)CC5)cc4)ccnc3c2)C1 (stereo not drawn) [Compound 93, 1-N′-(4-Fluorophenyl)-1-N-[4-[7-(1-methylsulfonylpyrrolidin-3-yl)quinolin-4-yl]oxyphenyl]cyclopropane-1,1-dicarboxamide]
7.00 to 8.00	Cc1cc2c(Oc3cc(F)c(NC(=O)C4(C(=O)Nc5ccc(F)cc5)CC4)cc3F)ccnc2cc1-c1cnn(C)c1 [Compound 105, 1-N′-[2,5-Difluoro-4-[6-methyl-7-(1-methylpyrazol-4-yl)quinolin-4-yl]oxyphenyl]-1-N-(4-fluorophenyl)cyclopropane-1,1-dicarboxamide]
6.52 to 7.00	O=C(Nc1ccc(F)cc1)C1(C(=O)Nc2ccc(Oc3ccnc4cc(-c5cc6ccccn6n5)ccc34)cc2)CC1 [Compound 104, 1-N′-(4-Fluorophenyl)-1-N-[4-(7-pyrazolo[1,5-a]pyridin-2-ylquinolin-4-yl)oxyphenyl]cyclopropane-1,1-dicarboxamide]
≥ 8.00	Nc1cc(-c2ccc3c(Oc4ccc(NC(=O)C5(C(=O)Nc6ccc(F)cc6)CC5)cc4)ccnc3c2)ccn1 [Compound 97, 1-N-[4-[7-(2-Aminopyridin-4-yl)quinolin-4-yl]oxyphenyl]-1-N′-(4-fluorophenyl)cyclopropane-1,1-dicarboxamide]
6.52 to 7.00	Cc1cc2c(Oc3ccc(NC(=O)C4(C(=O)Nc5ccc(F)cc5)CC4)cc3)ccnc2cc1-c1ccn(C)n1 [Compound 108, 1-N′-(4-Fluorophenyl)-1-N-[4-[6-methyl-7-(1-methylpyrazol-3-yl)quinolin-4-yl]oxyphenyl]cyclopropane-1,1-dicarboxamide]
7.00 to 8.00	Cc1cnn(-c2ccc3c(Oc4ccc(NC(=O)C5(C(=O)Nc6ccc(F)cc6)CC5)cc4)ccnc3c2)c1 [Compound 96, 1-N′-(4-Fluorophenyl)-1-N-[4-[7-(4-methylpyrazol-1-yl)quinolin-4-yl]oxyphenyl]cyclopropane-1,1-dicarboxamide]
7.00 to 8.00	O=C(Nc1ccc(F)cc1)C1(C(=O)Nc2ccc(Oc3ccnc4cc(-c5ccn(CF)n5)ccc34)cc2)CC1 [Compound 102, 1-N-[4-[7-[1-(Fluoromethyl)pyrazol-3-yl]quinolin-4-yl]oxyphenyl]-1-N′-(4-fluorophenyl)cyclopropane-1,1-dicarboxamide]
6.52 to 7.00	O=C(Nc1ccc(F)cc1)C1(C(=O)Nc2ccc(Oc3ccnc4cc(-c5ccccc5)ccc34)cc2)CC1 [Compound 55, 1-N′-(4-Fluorophenyl)-1-N-[4-(7-phenylquinolin-4-yl)oxyphenyl]cyclopropane-1,1-dicarboxamide]

— patent publication US12503438B2, “Compounds for the treatment of kinase-dependent disorders” (Exelixis, Inc., priority 2019, dated 2025)
